Here are results for 15 molecules from patent US9353089B2, “Compositions and methods for the treatment of malaria” (Saint Louis University, priority 2013, dated 2016).

The first assay has as its system Plasmodium falciparum 3D7 (CQ-sensitive). Put plainly: In vitro antimalarial assay (malaria SYBR Green I-based fluorescence, MSF), 3D7. The class given is cell-based. Conditions: 3D7, Table 13, read-out: 3D7 IC50. Here is the method:
Stock solutions of each test drug were prepared in DMSO at a concentration of 20 mM. The drug solutions were serially diluted with culture medium and distributed to asynchronous parasite cultures on 96-well plates in quadruplicate in a total volume of 100 μL to achieve 0.5% parasitemia with a 2% hematocrit in a total volume of 100 pt. […] After incubation, 100 μL of lysis buffer with 0.2 μL/mL SYBR Green I was added to each well.
Antimalarial potency of compounds was determined by this technique for both Plasmodium falciparum 3D7 (CQ-sensitive) and Dd2 (multi-drug resistant) strains.
With `C#Cc1cccc(-c2cccc(C3(C4CC4)NC(=N)N(C4CCOCC4)C3=O)c2)c1` (stereo not drawn) [Example 497, 5-cyclopropyl-5-(3′-ethynyl-[1,1′-biphenyl]-3-yl)-2-imino-3-(tetrahydro-2H-pyran-4-yl)imidazolidin-4-one], the IC50 – broadly, the concentration that inhibits the measured activity by half – is 1.15 µM.

For `N=C1NC(c2ccc(F)c(F)c2)(C2CC2)C(=O)N1C1CCOCC1` (stereo not drawn) [Example 498, 5-cyclopropyl-5-(3,4-difluorophenyl)-2-imino-3-(tetrahydro-2H-pyran-4-yl)imidazolidin-4-one], the IC50 turned out to be 1.29 µM.

For the molecule `COc1cccc(C2(C3CC3)NC(=N)N(C3CCOCC3)C2=O)c1` (stereo not drawn) [Example 499, 5-cyclopropyl-2-imino-5-(3-methoxyphenyl)-3-(tetrahydro-2H-pyran-4-yl)imidazolidin-4-one], the IC50 stood at 1.39 µM.

`N=C1NC(c2ccccc2Cl)(C2CC2)C(=O)N1C1CCOCC1` (stereo not drawn) [Example 500, 5-(2-chlorphenyl)-5-cyclopropyl-2-imino-3-(tetrahydro-2H-pyran-4-yl)imidazolidin-4-one]: the concentration for half-maximal inhibition (IC50) was 2.36 µM.

As for `COc1cc(C2(C3CCCCC3)NC(=N)N(C3CCOCC3)C2=O)ccc1Cl` (stereo not drawn) [Example 501, 5-(4-chloro-3-methoxyphenyl)-5-cyclohexyl-2-imino-3-(tetrahydro-2H-pyran-4-yl)imidazolidin-4-one], the 50% inhibitory concentration (IC50) was determined as 1.54 µM.

As for `N=C1NC(c2cccc(-c3cncc(Cl)c3)c2)(C2CC2)C(=O)N1C1CCCCC1` (stereo not drawn) [Example 514, 5-(3-(5-chloropyridin-3-yl)phenyl)-3-cyclohexyl-5-cyclopropyl-2-iminoimidazolidin-4-one], the half-maximal inhibitory concentration (IC50) was 0.97 µM.

With `CC#Cc1cncc(-c2cccc(C3(C4CC4)NC(=N)N(C4CCCCC4)C3=O)c2)c1` (stereo not drawn) [Example 515, 3-cyclohexyl-5-cyclopropyl-2-imino-5-(3-(5-(prop-1-yn-1-yl)pyridin-3-yl)phenyl)imidazolidin-4-one], the IC50 stood at 0.81 µM.

With `N=C1NC(c2cccc(-c3cncc(Cl)c3)c2)(C2CCCCC2)C(=O)N1C1CCOCC1` (stereo not drawn) [Example 516, 5-(3-(5-chloropyridin-3-yl)phenyl)-5-cyclohexyl-2-imino-3-(tetrahydro-2H-pyran-4-yl)imidazolidin-4-one], the IC50 came to 0.28 µM.

On to `COc1ccccc1C1(C2CC2)NC(=N)N(C2CCOCC2)C1=O` (stereo not drawn) [Example 518, 5-cyclopropyl-2-imino-5-(2-methoxyphenyl)-3-(tetrahydro-2H-pyran-4-yl)imidazolidin-4-one], for which the concentration for half-maximal inhibition (IC50) was 5.32 µM.

With `N=C1NC(c2cccc(O)c2)(C2CC2)C(=O)N1C1CCOCC1` (stereo not drawn) [Example 519, 5-cyclopropyl-5-(3-hydroxyphenyl)-2-imino-3-(tetrahydro-2H-pyran-4-yl)imidazolidin-4-one], the concentration for half-maximal inhibition (IC50) was 5.65 µM.

For `N=C1NC(c2ccc(O)cc2)(c2ccc(O)cc2)C(=O)N1C1CCCCC1` [Example 547, 3-cyclohexyl-5,5-bis(4-hydroxyphenyl)-2-iminoimidazolidin-4-one], the half-inhibitory concentration (IC50) is 0.85 µM.

In the case of `N=C1NC(c2cccc(O)c2)(C2CC2)C(=O)N1C1CCCCC1` (stereo not drawn) [Example 549, 3-cyclohexyl-5-cyclopropyl-5-(3-hydroxyphenyl)-2-iminoimidazolidin-4-one], the IC50 stood at 1.33 µM.

With `N=C1NC(c2ccc(O)cc2)(c2ccc(O)cc2)C(=O)N1C1CCOCC1` [Example 550, 5,5-bis(4-hydroxyphenyl)-2-imino-3-(tetrahydro-2H-pyran-4-yl)imidazolidin-4-one], the IC50 stood at 2.48 µM.

As to `N=C1NC(c2ccc(O)cc2)(C2CC2)C(=O)N1C1CCCCC1` (stereo not drawn) [Example 551, 3-cyclohexyl-5-cyclopropyl-5-(4-hydroxyphenyl)-2-iminoimidazolidin-4-one], the IC50 is 0.78 µM.

Staying with this assay, now noted: 3D7, read-out: 3D7 IC50 (μM), Table 13.
`N=C1NC(c2cccc(-c3cccnc3)c2)(C2CC2)C(=O)N1C1CCCCC1` (stereo not drawn) [Example 512, 3-cyclohexyl-5-cyclopropyl-2-imino-5-(3-(pyridin-3-yl)phenyl)imidazolidin-4-one]: the IC50 stood at 0.38 µM.
